According to patent publication US20140045807A2, “THE USE OF 3-METHOXY-PREGNENOLONE FOR THE PREPARATION OF A DRUG FOR TREATING A TRAUMATIC BRAIN INJURY” (priority 2004, published 2014):

Assays:
[1] = biological target: MAP2 (Homo sapiens, UniProt P11137); assay: Binding (affinity) by displacement of PREG-^3H
Procedure: Binding (affinity) is measured by the displacement of PREG-^3H.

[2] = biological target: purified tubulin and MAP2 (Homo sapiens, UniProt P11137); assay: MAP2-induced polymerization of microtubules in vitro (optical density at 345 nm); format: biochemical; settings: for Activity (increase in optical density at 345 nm): purified tubulin and MAP2, 37° C., GTP; for effect on microtubule polymerization: MAP2 and tubulin with GTP, 37° C.
Procedure: Purified MAP2 and tubulin are mixed in the presence of GTP at 4° C. in a spectrophotometer cuvette. Polymerization is induced by heating at 37° C. and is followed by the increase in optical density (OD) which indicates the quantity of polymers formed.
This in vitro test measures the effect of molecules on the MAP2-induced polymerization of microtubules. This polymerization occurs when MAP2 proteins and tubulin are mixed at adequate concentrations in the presence of GTP. It is accompanied by an increase in optical density measured at 345 nm for 15 to 30 minutes with a UNICON spectrophotometer thermostated at 37° C. (FIG. 1).
Activity is measured by the increase in optical density at 345 nm of a mixture of purified tubulin and MAP2, incubated at 37° C. in the presence of GTP.

[3] = system: α-tubulin forms (Tyr/Glu-Tub, Acet-Tub) in rat hippocampus; assay: Microtubule dynamics in rat hippocampus after single administration; format: in vivo; settings: 10 mg/kg subcutaneously, 3 h following injection
From the text: Mean±SEM, n=6 per group. **p<0.01, *[…] vs sesame oil.
The effects produced by neurosteroids were compared with those produced by acute administration of the antidepressant drug fluoxetine (selective serotonin reuptake inhibitor; SSRI).

[4] = system: PC12 cell line; assay: Cellular toxicity test; format: cell-based, rat; settings: concentrations as high as solubility limits (approximately 50 μM)
Procedure: Cellular toxicity tests are carried out routinely on the PC12 cell line.

[5] = system: PC12 cells; assay: Neuritic growth / sprouting in PC12 cells with NGF; format: cell-based, rat; settings: 30 μM, after 3 days of culture, with NGF
Procedure: Each molecule was tested in three culture wells. Measurements were taken for 200 cells per well using Scion Image software.
Neurite (neurite) length was measured for 200 cells per well after 2, 5, and 8 days of culture.
Stimulation of neuritic sprouting is conducted on PC12 cells differentiated in the presence of NGF (10 ng/ml) and the steroid being tested (30 μM) for 3 days. For each condition, the average length of the longest 200 neurites in each cell is measured simultaneously for 3 cultures.

[6] = system: human neuroblastoma HS-SY5Y cells; assay: Cytotoxicity of okadaic acid, steroid protection (LDH release); format: cell-based; settings: 24 hours, simultaneous addition, increasing concentrations
From the text: FIG. 6: Toxicity of okadaic acid. Steroid protection. […] Cell death was indicated by the release of lactate dehydrogenase (LDH) in the culture medium.
Okadaic acid is a protein phosphatase inhibiter. Thus, the hyperphosphorylation of tau protein is implicated in microtubule depolymerization and in human neuroblastoma HS-SY5Y cell death. The exposure of SY5Y cell cultures to okadaic acid does in fact cause significant cell death.

[7] = system: Sprague Dawley rats in the FST; assay: Forced swimming test (FST); format: in vivo, rat; settings: 10 mg/kg subcutaneously, 24, 5, 1 h before testing
From the text: (A) 3-methoxy-PREG (43B) decreased rat immobility in the FST showing antidepressant activity. Results are expressed as mean±SEM (n=6-14). One-way ANOVA: Treatment (F5, 46: 4.30 P<0.01). ***P<0.001, *P<0.05 vs. water and sesame oil (Fisher LSD test). […] Results are expressed as mean±SEM (n=6-14). One-way ANOVA: Treatment (F5, 46: 3.57 P<0.01). **P<0.01, *P<0.05 vs. water and sesame oil (Fisher LSD test). […] One-way ANOVA: Treatment (F5, 46: 3.57 P<0.01). **P<0.01, *P<0.05 vs. water and sesame oil (Fisher LSD test).
Drugs were administered following the traditional dosing regimen used in the FST consisting of three injections: 24, 5, 1 h before testing.
The FST is currently the most widely used animal model for assessing depression related behavior and antidepressant drug activity in rodents (Cryan et al., Neubiorev. 2005). Rats are placed in an inescapable cylinder of water where they develop an immobile posture believed to reflect a “depressive”-like state. The time rats spend immobile is decreased by drugs exerting antidepressant activity.
Additional behaviors can be detected in the FST; namely, climbing and swimming. It has been shown that swimming behavior is sensitive to SSRIs such as fluoxetine whereas climbing is sensitive to norepinephrine re-uptake inhibitors (NRI) such as desipramine.

[8] = system: transgenic mice expressing the longest human tau protein isoform; assay: RotaRod test in transgenic mice expressing the longest human tau protein isoform; format: in vivo, mouse; settings: subcutaneous implant releasing 0.38 mg of steroid per day for 90 days
From the text: FIG. 8: Effect of molecule 43B on the motor incoordination of transgenic mice expressing the longest isoform of human tau protein in their neurons. […] The maximum speed of rotation of the RotaRod drum before the […] falls is a measurement of motor coordination (higher values correspond to a better treatment effect).
In order to evaluate the therapeutic potential of 43B to treat Alzheimer-type neurodegenerative diseases, a homozygous transgenic line of mice, such as described by Götz (EMBO J. 1995; 14(7):1304-13), can be used.
These mice express the longest human tau protein isoform. They present symptoms of neurological dysfunction expressed as muscular weakness and a reduction in motor coordination which correlate histologically with the appearance of abnormal neurites and hyperphosphorylated tau proteins as is seen in Alzheimer's disease. This pathological phosphorylation decreases the affinity of tau for microtubules and favors its aggregation.
A breeding program was undertaken at Bicêtre and genotyping made it possible to select mice homozygous for the transgene. […] These implants released 0.38 mg of steroid per day for 90 days. The progression of motor incoordination was followed by repeated RotaRod tests.

[9] = system: PC12 cells; assay: Retraction of neurites induced by nocodazole; format: cell-based, rat; settings: pretreated one hour at 30 μM, nocodazole 15 minutes
From the text: FIG. 5: Retraction of neurites (neurites) induced by nocodazole.
Nocodazole is a microtubule depolymerizing agent. Its addition to PC12 cell cultures, differentiated in the presence of NGF, causes neurites to retract as a result of the depolymerization of their microtubules.

[10] = biological target: T1, human progesterone receptor(PR) (Homo sapiens, UniProt P06401); assay: Test of progesterone receptor agonist activity (luciferase transactivation, HEK293T); format: cell-based; settings: increasing amounts, 24 hours
T1 construct: expressed in transfected cells; host or cells: HEK293T
T1 sequence (P06401 1-933): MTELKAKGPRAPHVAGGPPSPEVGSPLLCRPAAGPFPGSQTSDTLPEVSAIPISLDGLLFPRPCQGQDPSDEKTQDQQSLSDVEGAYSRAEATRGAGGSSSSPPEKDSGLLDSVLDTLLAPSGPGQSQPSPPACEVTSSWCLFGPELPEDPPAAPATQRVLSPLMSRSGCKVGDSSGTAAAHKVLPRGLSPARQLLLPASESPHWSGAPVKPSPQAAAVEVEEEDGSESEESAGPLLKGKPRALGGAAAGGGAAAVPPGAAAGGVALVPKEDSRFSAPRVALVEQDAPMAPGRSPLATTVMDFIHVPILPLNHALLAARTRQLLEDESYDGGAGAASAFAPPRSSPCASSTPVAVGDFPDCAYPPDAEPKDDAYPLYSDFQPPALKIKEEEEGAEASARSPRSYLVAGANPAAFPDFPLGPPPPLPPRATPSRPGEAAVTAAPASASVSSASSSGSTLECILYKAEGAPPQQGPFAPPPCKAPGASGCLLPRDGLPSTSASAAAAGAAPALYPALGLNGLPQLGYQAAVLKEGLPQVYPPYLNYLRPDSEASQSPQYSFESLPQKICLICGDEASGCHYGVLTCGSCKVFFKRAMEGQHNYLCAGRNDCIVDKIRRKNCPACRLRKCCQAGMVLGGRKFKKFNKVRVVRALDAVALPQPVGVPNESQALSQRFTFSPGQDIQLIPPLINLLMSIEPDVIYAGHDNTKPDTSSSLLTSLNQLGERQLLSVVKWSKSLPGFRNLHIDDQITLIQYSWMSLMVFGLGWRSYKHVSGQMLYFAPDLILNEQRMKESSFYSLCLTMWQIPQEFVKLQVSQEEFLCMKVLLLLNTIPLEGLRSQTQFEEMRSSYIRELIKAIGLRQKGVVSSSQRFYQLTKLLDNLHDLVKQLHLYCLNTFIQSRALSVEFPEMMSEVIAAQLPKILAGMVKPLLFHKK
Procedure: The main experimental setting used is the following: HEK293T cells were transiently transfected, using calcium phosphate precipitation technology, with expression vectors pSG5hPR (which permits expression of human progesterone receptor(PR)), pFC31-luc (contains the luciferase gene under the control of the MMTV promoter, which is in turn activated by binding of a progestin to progesterone receptor) and pcbetagal (which permits expression of betagalactosidase), and cultured during 24 hours with increasing amounts of various compositions: • 1. […] Test of progesterone receptor […] activity: transfected cells were cultured with progesterone (1 nM) and increasing amounts of RU486 (a well-known progesterone receptor antagonist) or 3-methoxy-pregnenolone. • With this setting, a compound with progesterone receptor antagonist activity competes with progesterone for the occupation of progesterone receptor and results in a progressive loss of transactivation activity when the amount of this compound is increased compared to progesterone.

[11] = 40 μM, compared to control kinetics with solvent alone

Sequence of purified tubulin and MAP2 (P11137 whole entry): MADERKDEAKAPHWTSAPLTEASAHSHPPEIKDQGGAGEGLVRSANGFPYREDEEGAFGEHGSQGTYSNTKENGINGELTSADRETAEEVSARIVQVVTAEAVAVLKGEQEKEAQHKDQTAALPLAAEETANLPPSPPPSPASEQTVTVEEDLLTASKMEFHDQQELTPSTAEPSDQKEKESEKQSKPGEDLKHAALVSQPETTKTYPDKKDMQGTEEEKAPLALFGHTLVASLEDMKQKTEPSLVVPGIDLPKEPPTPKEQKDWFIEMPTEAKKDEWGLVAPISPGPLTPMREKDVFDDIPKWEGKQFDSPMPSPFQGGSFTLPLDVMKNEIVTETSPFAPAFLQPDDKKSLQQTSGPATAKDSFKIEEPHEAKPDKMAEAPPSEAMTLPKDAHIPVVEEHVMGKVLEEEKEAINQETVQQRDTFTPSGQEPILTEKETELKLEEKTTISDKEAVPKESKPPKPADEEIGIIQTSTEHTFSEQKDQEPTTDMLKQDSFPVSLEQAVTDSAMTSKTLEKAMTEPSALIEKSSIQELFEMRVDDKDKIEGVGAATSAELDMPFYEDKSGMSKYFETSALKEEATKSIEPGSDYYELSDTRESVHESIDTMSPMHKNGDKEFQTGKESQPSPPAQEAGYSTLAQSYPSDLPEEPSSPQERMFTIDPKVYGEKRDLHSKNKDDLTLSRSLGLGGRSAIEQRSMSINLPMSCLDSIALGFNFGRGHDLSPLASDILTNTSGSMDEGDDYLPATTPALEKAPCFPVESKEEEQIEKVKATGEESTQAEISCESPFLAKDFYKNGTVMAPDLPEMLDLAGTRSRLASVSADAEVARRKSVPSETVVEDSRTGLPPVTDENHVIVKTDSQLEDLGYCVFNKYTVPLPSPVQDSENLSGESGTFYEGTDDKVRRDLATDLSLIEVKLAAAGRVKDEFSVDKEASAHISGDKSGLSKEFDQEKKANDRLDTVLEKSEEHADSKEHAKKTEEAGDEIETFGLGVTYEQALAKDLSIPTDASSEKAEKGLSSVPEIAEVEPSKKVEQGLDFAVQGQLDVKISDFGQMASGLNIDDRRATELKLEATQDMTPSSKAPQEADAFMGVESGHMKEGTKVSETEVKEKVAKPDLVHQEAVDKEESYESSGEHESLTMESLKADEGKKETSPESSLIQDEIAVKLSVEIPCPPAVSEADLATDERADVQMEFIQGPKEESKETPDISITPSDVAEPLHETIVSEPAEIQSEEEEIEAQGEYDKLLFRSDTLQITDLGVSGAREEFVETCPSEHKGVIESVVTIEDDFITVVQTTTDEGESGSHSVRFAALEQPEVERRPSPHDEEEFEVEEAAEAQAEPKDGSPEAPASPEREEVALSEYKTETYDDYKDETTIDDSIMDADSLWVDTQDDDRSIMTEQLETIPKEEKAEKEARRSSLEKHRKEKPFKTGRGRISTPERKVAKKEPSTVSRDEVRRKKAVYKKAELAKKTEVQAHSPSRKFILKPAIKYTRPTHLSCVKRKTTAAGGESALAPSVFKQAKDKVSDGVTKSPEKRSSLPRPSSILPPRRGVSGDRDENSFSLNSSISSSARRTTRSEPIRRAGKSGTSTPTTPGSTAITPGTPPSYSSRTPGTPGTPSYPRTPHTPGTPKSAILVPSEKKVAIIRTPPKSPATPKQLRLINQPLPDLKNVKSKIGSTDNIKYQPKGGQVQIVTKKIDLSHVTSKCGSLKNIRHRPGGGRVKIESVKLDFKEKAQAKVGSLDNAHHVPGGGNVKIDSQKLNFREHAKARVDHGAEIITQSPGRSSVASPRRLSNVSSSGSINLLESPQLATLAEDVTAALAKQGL
Sequence of MAP2 (P11137 whole entry): as above

Molecule: CC(=O)[C@H]1[C@H](C)C[C@H]2[C@@H]3CC[C@H]4C[C@@H](O)CC[C@]4(C)[C@H]3CC[C@@]21C [3β-hydroxy-5α-pregnane-20-one-16α-methyl]
- Affinity (index of binding) [1]: 57% of PREG
- Activity (increase in optical density at 345 nm) [2]: 53% of PREG

Molecule: CO[C@H]1CC[C@@]2(C)[C@@H](CC[C@@H]3[C@@H]2CC[C@]2(C)[C@@H](C(C)=O)CC[C@@H]32)C1 [3β-methoxy-5α-pregnane-20-one]
- Affinity (index of binding) [1]: 87% of PREG
- Activity (increase in optical density at 345 nm) [2]: 10% of PREG

Molecule: CO[C@H]1CC[C@@]2(C)C(CCC3C2CC[C@@]2(C)C3CC[C@@H]2[C@@H](C)O)C1 (stereo partly drawn) [3β-methoxy-5α-pregnane-20β-ol]
- Affinity (index of binding) [1]: 65% of PREG
- Activity (increase in optical density at 345 nm) [2]: 65% of PREG

Molecule: CO[C@H]1CC[C@@]2(C)C(=CC[C@H]3C4=CC[C@H](C(C)=O)[C@@]4(C)CC[C@@H]32)C1 [3β-methoxy-pregna-5,14-diene-20-one]
- Affinity (index of binding) [1]: 102% of PREG
- Activity (increase in optical density at 345 nm) [2]: 50% of PREG

Molecule: CO[C@H]1CC[C@@]2(C)C(=CC[C@@H]3[C@@H]2CC[C@@]2(C)[C@H]3CC[C@@]2(C(C)=O)C(Cl)Cl)C1 [3β-methoxy-pregna-5-ene-20-one-17α-dichloromethyl]
- Affinity (index of binding) [1]: 53% of PREG
- Activity (increase in optical density at 345 nm) [2]: 113% of PREG

Molecule: CC(=O)[C@H]1CC[C@H]2[C@@H]3CC=C4C[C@@H](O)CC[C@]4(C)[C@H]3CC[C@]12C [PREG, Pregnenolone]
- Acet-Tub (marker of stable microtubules) [3]: significantly decreased
- cellular toxicity [4]: do not demonstrate toxicity
- increase in the average length of the neurites [5]: 60%
- cell death caused by okadaic acid (LDH release) [6]: Cell death is decreased
- rat climbing behavior in the FST [7]: not changed
- rat swimming in the FST [7]: significantly increased
- motor dysfunction (RotaRod) [8]: Only the 3-methoxy-PREG had a beneficial effect
- Lag time of microtubule polymerization [2, 11]: decreased
- polymerization rate and quantity of microtubules [2, 11]: clearly increase
- effect on microtubule polymerization [2]: activates microtubule polymerization
- Activity (increase in optical density at 345 nm) [2]: 100% of PREG
- resistance of neurites to nocodazole [9]: makes the neurites resistant to nocodazole

Molecule: CC(=O)[C@@]12C[C@@H]1C[C@H]1[C@@H]3CC=C4C[C@@H](O)CC[C@]4(C)[C@H]3CC[C@@]12C [PREG-16α,17α-methylene]
- Affinity (index of binding) [1]: 62% of PREG
- Activity (increase in optical density at 345 nm) [2]: 49% of PREG

Molecule: CC(=O)[C@H]1[C@H](C)C[C@H]2[C@@H]3CC=C4C[C@@H](O)CC[C@]4(C)[C@H]3CC[C@@]21C [PREG-16α-methyl]
- Affinity (index of binding) [1]: 80% of PREG
- Activity (increase in optical density at 345 nm) [2]: 70% of PREG

Molecule: CC(=O)[C@H]1[C@@H](C)C[C@H]2[C@@H]3CC=C4C[C@@H](O)CC[C@]4(C)[C@H]3CC[C@@]21C [PREG-16β-methyl]
- Affinity (index of binding) [1]: 63% of PREG
- Activity (increase in optical density at 345 nm) [2]: 67% of PREG

Molecule: CC(=O)O[C@H](C)[C@H]1CC[C@H]2[C@@H]3CC=C4C[C@@H](O)CC[C@]4(C)[C@H]3CC[C@]12C [Pregna-5-ene-3β,20β-diol-20-acetate]
- Affinity (index of binding) [1]: 60% of PREG
- Activity (increase in optical density at 345 nm) [2]: 108% of PREG

Molecule: CNCCC(Oc1ccc(C(F)(F)F)cc1)c1ccccc1 (stereo not shown) [fluoxetine]
- Acet-Tub (marker of stable microtubules) [3]: tendency to increase
- Tyr/Glu-Tub ratio (index of microtubule dynamics) [3]: did not change

Molecule: CC(=O)[C@H]1CC[C@H]2[C@@H]3CCC4=CC(=O)CC[C@]4(C)[C@H]3CC[C@]12C [progesterone, reference compound]
- progesterone receptor agonist (transactivation) activity [10]: permits a transactivation activity
- effect on microtubule polymerization [2]: do not stimulate polymerization

Molecule: PREG-16α,17α-epoxy
- Affinity (index of binding) [1]: 41% of PREG
- Activity (increase in optical density at 345 nm) [2]: 54% of PREG

Molecule: pregnenolone sulfate [reference compound]
- effect on microtubule polymerization [2]: do not stimulate polymerization
